Experiments:
Type in all cases: cell-based, human
iPSC-CMs [1] = assay: Resting membrane potential of iPSC-CMs in 2D culture; conditions: Torin1 200 nM, compared to control (DMSO)
From the text: Pluripotent stem cell-derived cardiomyocytes (PSC-CMs) offer a regenerative approach to treat patients with systolic heart failure. However, delivery of immature PSC-CMs may increase the risk of ventricular arrhythmias, which is a barrier to clinical translation (1, 2). It was recently identified that inhibition of the mechanistic target of rapamycin (mTOR) pathway improves maturation of cardiomyocytes derived from induced pluripotent stem cells (iPSCs) in two-dimensional (2D) culture (3). […] This could greatly simplify the manufacturing process compared to other protocols that take 2 months to produce mature PSC-CMs with similar resting membrane potentials (4).

[2] = tested on: iPSC-derived cardiomyocytes; assay: Protein expression of cardiac markers in iPSC-CMs, 3D suspension culture, FOXO/FOXM1 modulators; conditions: for protein expression of TNNI3 / protein expression of TNNT2: 3D suspension culture
From the text: (§1) FOXO activation with LOM612 enhances protein (FIG. 19B) but not RNA expression of Kir2.1 (FIG. 19A). FOXO activation increases the upstroke velocity (spike slope) (FIG. 19C).
(§2) Cell lines used included UCSD142i-86-1 iPSC line (WiCell), Gibco human episomal iPSC line (Thermo), and DiPS 1016SevA iPSC line (Harvard. Cardiomyocytes are obtained utilizing a differential protocol adapted from Lian et al. Nat Protoc 2013: 8 (1): 162-75 (FIG. 16A). The differentiation protocol may be modified utilizing modulators of FOXO and FOXM1 (FIG. 16B). Cardiomyocytes may be characterized as being contractility mature, metabolically mature, or electrophysiologically mature (FIG. 16C).

[3] = tested on: iPSC-derived cardiomyocytes; assay: Contractile and electrophysiological properties by multielectrode array analysis, FOXO/FOXM1 modulators; conditions: for contractility: iPSC-derived cardiomyocytes
From the text: as §2
The contractile properties of cardiomyocytes improved with FOXO activation. FOXO activation with LOM612 or FOXM1 inhibition with RCM-1 increases protein expression of cardiac troponin T (TNNT2) and increases mean beat amplitude by multielectrode array analysis (FIG. 17). […] AS1842856 may be applied in an amount of about 0.2 to 1 μM.
(§3) FOXO activation improved electrophysiological properties of PSC-CMs. FOXO activation with LOM612 enhances protein, but not RNA expression of Kir2.1 (FIGS. 19A-19B). FOXO activation increases the upstroke velocity (spike slope) (FIG. 19C).

PSC-CMs [4] = assay: Oxygen consumption rate and respiratory reserve capacity of PSC-CMs
From the text: FOXO activation with LOM612 (FIG. 18A) or FOXM1 inhibition with RCM-1 (FIG. 18B) increases maximum oxygen consumption rate (OCR) and respiratory reserve capacity, while inhibition of FOXO with AS1842856 (FIG. 18C) inhibits maximum OCR and respiratory reserve capacity.
In some embodiments, the cardiomyocytes are metabolically mature cardiomyocytes. In some aspects, a cardiomyocyte has increased metabolic activity as compared to an immature cardiomyocyte. In some embodiments, a cardiomyocyte has increased oxygen consumption and/or extracellular acidification rate as compared to immature cardiomyocytes. In some embodiments, a cardiomyocyte has increased respiratory reserve as compared to immature cardiomyocytes. Metabolic maturity may be quantified using a Seahorse mito stress metabolic assay (Agilent). The assay may be used to measure oxygen consumption rate and extracellular acidification rate in response to one or more compounds (e.g., small molecule compounds) that affect mitochondrial function.
FOXO activation with LOM612 or FOXM1 inhibition with RCM-1 increases maximum oxygen consumption rate (OCR) and respiratory reserve capacity, while inhibition of FOXO with AS1842856 inhibits maximum OCR and respiratory reserve capacity (FIG. 18).

iPSC-CMs [5] = assay: Flow cytometry of marker expression in iPSC-CMs differentiated and treated in 3D culture
From the text: Nutlin-3a increases the percentage (FIG. 12A) and mean fluorescence intensity (MFI) (FIG. 12B) of TNNT2 in iPSC-CMs as well as the percentage (FIG. 12C) and MFI (FIG. 12D) of Kir2.1 in TNNT2+iPSC-CMs by flow cytometry. Nutlin-3a increases the percentage (FIG. 12E) and MFI (FIG. 12F) of p53 in TNNT2+iPSC-CMs. Nutlin-3a increases mean beat amplitude (FIG. 12G) and mean spike amplitude (FIG. 12H) of iPSC-CMs as quantified using a multielectrode array. *p<0.05. **p<0.01. ***p<0.001. ****p<0.0001 by one-way ANOVA. iPSC-CMs differentiated and treated in 3D. […]
(§4) Kir2.1 is the ion channel largely responsible for maintaining the resting membrane potential via the inward rectifier current (IK1); at lower levels, abnormal membrane depolarization can increase the risk of ventricular arrhythmias (8, 9). Nutlin-3a but not Torin1 treatment of iPSC-CMs increased expression of TNNT2 and Kir2.1 (FIG. 12A-12D). Also, Nutlin-3a but not Torin1 increased expression of p53, which may support induction of a quiescent state (FIG. 12E-12F).

iPSC-CMs [6] = assay: Multielectrode array (Axion Maestro Edge) of iPSC-CMs in 3D culture; conditions: iPSC-CMs differentiated and treated in 3D
From the text: Nutlin-3a increases the percentage (FIG. 12A) and mean fluorescence intensity (MFI) (FIG. 12B) of TNNT2 in iPSC-CMs as well as the percentage (FIG. 12C) and MFI (FIG. 12D) of Kir2.1 in TNNT2+iPSC-CMs by flow cytometry. Nutlin-3a increases the percentage (FIG. 12E) and MFI (FIG. 12F) of p53 in TNNT2+iPSC-CMs. Nutlin-3a increases mean beat amplitude (FIG. 12G) and mean spike amplitude (FIG. 12H) of iPSC-CMs as quantified using a multielectrode array. *p<0.05. **p<0.01. ***p<0.001. ****p<0.0001 by one-way ANOVA. iPSC-CMs differentiated and treated in 3D.
as §4

PSC-CMs [7] = assay: RNA expression of cardiac markers in PSC-CMs
From the text: as §1, §3

Row | SMILES | protein expression of TNNI3 [2] | protein expression of TNNT2 [2] | mean beat amplitude by multielectrode array analysis ([3]; 3D suspension culture) | contractility [3] | maximum oxygen consumption rate (OCR) (PSC-CMs [4]) | respiratory reserve capacity (PSC-CMs [4]) | mean fluorescence intensity (MFI) of Kir2.1 (iPSC-CMs [5]; flow cytometry) | percentage of Kir2.1 in TNNT2+ iPSC-CMs (iPSC-CMs [5]; flow cytometry) | percentage of TNNT2 in iPSC-CMs (% TNNT2+) (iPSC-CMs [5]; flow cytometry) | expression of Kir2.1 (iPSC-CMs [5]; iPSC-CMs) | mean fluorescence intensity (MFI) of p53 (iPSC-CMs [5]; flow cytometry) | percentage of p53 in TNNT2+ iPSC-CMs (iPSC-CMs [5]; flow cytometry) | expression of p53 (iPSC-CMs [5]; iPSC-CMs) | further results
1 | CCC(=O)N1CCN(c2ccc(-n3c(=O)ccc4cnc5ccc(-c6cnc7ccccc7c6)cc5c43)cc2C(F)(F)F)CC1 [Torin1] |  |  |  |  |  |  |  |  |  |  |  |  |  | resting membrane potential (iPSC-CMs [1]): decreased
2 | CN(C)c1nsc2c1C(=O)c1ccccc1C2=O [LOM612] | increases | increases | increases | enhances | increases | increases |  |  |  |  |  |  |  | protein expression of Kir2.1 ([2]; PSC-CMs): enhances; upstroke velocity (spike slope) ([3]; FOXO activation, PSC-CMs): increases
3 | N#Cc1c(-c2cccs2)cc(-c2cccs2)nc1SCC(=O)c1cccs1 [RCM1] | increases | increases | increases |  | increases | increases | increases | increases | increases | increased |  |  |  | purity of iPSC-CMs (iPSC-CMs [5]): increased
4 | COc1ccc(C2=N[C@@H](c3ccc(Cl)cc3)[C@@H](c3ccc(Cl)cc3)N2C(=O)N2CCNC(=O)C2)c(OC(C)C)c1 [Nutlin-3a, nutlin-3a] |  |  |  |  |  |  | increases | increases | increases | increased | increases | increases | increased | mean fluorescence intensity (MFI) of TNNT2 (iPSC-CMs [5]; flow cytometry): increases; expression of TNNT2 (iPSC-CMs [5]; iPSC-CMs): increased; mean beat amplitude (iPSC-CMs [6]): increases; mean spike amplitude (iPSC-CMs [6]): increases
5 | CCn1cc(C(=O)O)c(=O)c2c(N)c(F)c(NC3CCCCC3)cc21 [AS1842856] | decreases | decreases |  | poorly contractile cells | inhibits | inhibits |  |  |  |  |  |  |  | beating of spheroids ([3]; 3D suspension culture): non-beating spheroids; cardiac marker RNA levels (PSC-CMs [7]): reduce
6 | O=c1c(O)c(-c2ccc(O)c(O)c2)oc2cc(O)cc(O)c12 [Quercetin, quercetin] |  |  |  |  |  |  | increases | increases |  | increased | increases | increases | increased | 

Source: US20250297224A1, “CARDIOMYOCYTES AND COMPOSITIONS AND METHODS FOR PRODUCING THE SAME” (President and Fellows of Harvard College, priority 2021, published 2025)
